Experimental data reported in patent publication US10519339B2, “Method for applying a coating to a polymeric substrate” (Sophion Bioscience A/S, priority 2012, dated 2019).

Test: Adsorption of drugs: recovery from supernatant by ESI-MS after incubation on glass, coated or uncoated polystyrene
Type: physicochemical
Conditions: 100 nM drug, FIG. 4, samples stored in glass vials up to 3 days
Description: Different concentrations of the drugs were dissolved in 2 ml H2O from a stock solution of 0.5 mM in 50% acetonitrile/50% H2O, and added to coated or uncoated polystyrene containers (2 mL solution added to each circular container of diameter 33 mm) as well as glass containers acting as reference material. Drug concentrations up to 250 nM were investigated. At different time points 250 μL of supernatant was sampled for analysis. […] The samples were analyzed by ESI-MS using 50% H2O/50% MeOH/0.1% acetic acid running buffer (0.1 mL/min).
The effectiveness of the low-binding Bz+NHS-PEG coatings were probed by extended incubation of coated and uncoated polystyrene in 100 nM solutions of drugs spanning a wide range of hydrophobicity. Glass surfaces were included as reference to the polystyrene. The supernanants of the incubation solutions were sampled at different time points, and the drug concentrations determined by electrospray ionization mass spectrometry (ESI-MS) after addition of an internal standard.
The recovery was calculated as the ratio of the drug concentration in the supernatant to the initially added drug concentration.

CCCCc1oc2ccccc2c1C(=O)c1cc(I)c(OCCN(CC)CC)c(I)c1 [amiodarone]
adsorption on glass surface: large adsorption even on the glass surface
